# Like-named read-outs stand apart in the source and are kept apart here.
# Tested on: Formosan subterranean termites (Coptotermes formosanus)
# Assay: whole plant or invertebrate
# Conditions: soil, 72 h
# Experimental: The emulsifiable concentrates obtained in Formulation Examples 1, 2 and 3 were each diluted with distilled water to a predetermined concentration. Five milliliters of every dilute chemicals solution was added to 100 g of sandy loam previously heat-sterilized, and the mixture was thoroughly mixed to prepare a test soil. This test soil was stored at 40° C. under a dark condition. After storage for a predetermined period of time (2 months and 3 months), about 15 g of the test soil was put in a plastic dish (diameter, 9 cm; height, 2 cm) and wetted. Twenty workers of Formosan subterranean termites (Coptotermes formosanus) were liberated in the plastic dish. After the dish was kept at room temperature for 3 days, the condition of the termites was observed.
# For comparison, the same test was also carried out using each of fenvalerate and MGK 264.
# The same test as in Test Example 1 was carried out using the emulsifiable concentrates obtained in Formulation Examples 6 and 7.
# For comparison, the same test was also carried out using each of permethrin and MGK 264.
# [1] = read-out: Mortality (%) after 3 days
smiles,measurement,setting,value
"CCCCC(CC)CN1C(=O)C2C3C=CC(C3)C2C1=O (centres unmarked) [MGK 264, N-(2-ethylhexyl)bicyclo[2.2.1]hept-5-en-2,3-dicarboximide]",mortality at 500 ppm,[1],0%
same,mortality at 1000 ppm,[1],0%
"CC(C)C(C(=O)OC(C#N)c1cccc(Oc2ccccc2)c1)c1ccc(Cl)cc1 (stereo not drawn) [Fenvalerate, α-cyano-3-phenoxy-benzyl-2-(4-chlorophenyl)-3-methylbutyrate]",mortality at 125 ppm,"read-out: Mortality (%) after 3 days, 125 ppm, treated soil stored 2 months at 40° C., Table 1",0%
same,mortality at 125 ppm,"read-out: Mortality (%) after 3 days, 125 ppm, treated soil stored 3 months at 40° C., Table 1",0%
same,mortality at 250 ppm,"read-out: Mortality (%) after 3 days, 250 ppm, treated soil stored 2 months at 40° C., Table 1",0%
same,mortality at 250 ppm,"read-out: Mortality (%) after 3 days, 250 ppm, treated soil stored 3 months at 40° C., Table 1",0%
"CC1(C)C(C=C(Cl)Cl)C1C(=O)OCc1cccc(Oc2ccccc2)c1 (centres unmarked) [Permethrin, 3-phenoxybenzyl 3-(2,2-dichlorovinyl)-2,2-dimethylcyclopropanecarboxylate]",mortality at 125 ppm,"read-out: Mortality (%) after 3 days, 125 ppm, treated soil stored 2 months at 40° C., Table 2",80%
same,mortality at 125 ppm,"read-out: Mortality (%) after 3 days, 125 ppm, treated soil stored 3 months at 40° C., Table 2",30%

# Reference: patent US6723331B1, “Termite-controlling agent and a controlling method thereof” (Sumitomo Chemical Company, Limited, priority 1992, dated 2004)
